{
  "source": "patent EP0207202A1",
  "about": "“Anti-tumor platinum complexes” (Kidani, Yoshinori, priority 1985, dated 1987)",
  "tested_on": "Leukemia L-1210",
  "conditions": "for T/C x 100 / number of mice cured after 30 days of the administration of the cells of Leukemia L-1210: 6 mice per group; for T/C x 100: ratio of mean survival time test/control x 100; for number of mice cured after 30 days of the administration of the cells of Leukemia L-1210: parenthesized figure",
  "description": "Cells of Leukemia L-1210 were intraperitoneally administered to each of groups of mice(6 animals per group) at a rate of 10^5 cells per mouse, and while breeding the mice of control group, each of the compounds of the present invention was intraperitoneally administered to each mouse of the test groups after one, five and nine days of the administration of the cells, the mice of the test groups being bred similarly to those of control group. After observing the mortality of all the mice, the mean survival time period after the administration of the cells was obtained in each group including control group.",
  "key": {"[1]": {"conditions": "6.25 mg/kg intraperitoneally on days 1, 5 and 9 after 10^5 L-1210 cells i.p."}, "[2]": {"conditions": "12.5 mg/kg intraperitoneally on days 1, 5 and 9 after 10^5 L-1210 cells i.p."}, "[3]": {"conditions": "25 mg/kg i.p. on days 1, 5 and 9"}, "[4]": {"conditions": "25 mg/kg intraperitoneally on days 1, 5 and 9 after 10^5 L-1210 cells i.p."}, "[5]": {"conditions": "50 mg/kg i.p. on days 1, 5 and 9"}, "[6]": {"conditions": "50 mg/kg intraperitoneally on days 1, 5 and 9 after 10^5 L-1210 cells i.p."}, "[7]": {"conditions": "100 mg/kg intraperitoneally on days 1, 5 and 9 after 10^5 L-1210 cells i.p."}, "[8]": {"conditions": "100 mg/kg i.p. on days 1, 5 and 9"}},
  "note": "Where two headings read alike, the source gives them in different places.",
  "data": [
    {"substance": "PtCl(D-glucuronato)(trans-dl-AMCHA)·2H2O [Compound No. 1]", "values": [
      {"measurement": "T/C x 100", "setting": "[1]", "value": 144},
      {"measurement": "T/C x 100", "setting": "[2]", "value": 118},
      {"measurement": "number of mice cured after 30 days of the administration of the cells of Leukemia L-1210", "setting": "[3]", "value": 2},
      {"measurement": "T/C x 100", "setting": "[4]", "value": 293}
    ]},
    {"substance": "Pt(NO3)(tetra-O-acetyl-α-D-glucuronato)(cis-dl-AMCHA) [Compound No. 6]", "values": [
      {"measurement": "number of mice cured after 30 days of the administration of the cells of Leukemia L-1210", "setting": "[3]", "value": 1},
      {"measurement": "T/C x 100", "setting": "[4]", "value": 281},
      {"measurement": "number of mice cured after 30 days of the administration of the cells of Leukemia L-1210", "setting": "[5]", "value": 3},
      {"measurement": "T/C x 100", "setting": "[6]", "value": 402},
      {"measurement": "T/C x 100", "setting": "[7]", "value": 120}
    ]},
    {"substance": "Pt(penta-O-acetyl-D-gluconato)2(trans-dl-AMCHA)·H2O [Compound No. 15]", "values": [
      {"measurement": "T/C x 100", "setting": "[6]", "value": 267},
      {"measurement": "T/C x 100", "setting": "[7]", "value": 103}
    ]},
    {"substance": "PtCl(D-glucuronato)(cis-dl-AMCHA)·H2O [Compound No. 2]", "values": [
      {"measurement": "number of mice cured after 30 days of the administration of the cells of Leukemia L-1210", "setting": "6.25 mg/kg i.p. on days 1, 5 and 9", "value": 2},
      {"measurement": "T/C x 100", "setting": "[1]", "value": 271},
      {"measurement": "T/C x 100", "setting": "[2]", "value": 189},
      {"measurement": "T/C x 100", "setting": "[4]", "value": 156}
    ]},
    {"substance": "Pt(NO3)(tetra-O-acetyl-β-D-glucuronato)(trans-dl-AMCHA)·2H2O [Compound No. 9]", "values": [
      {"measurement": "number of mice cured after 30 days of the administration of the cells of Leukemia L-1210", "setting": "[5]", "value": 1},
      {"measurement": "T/C x 100", "setting": "[6]", "value": 253},
      {"measurement": "number of mice cured after 30 days of the administration of the cells of Leukemia L-1210", "setting": "[8]", "value": 2},
      {"measurement": "T/C x 100", "setting": "[7]", "value": 206}
    ]},
    {"substance": "Pt(tetra-O-acetyl-α-D-glucuronato)2(cis-dl-AMCHA) [Compound No. 4]", "values": [
      {"measurement": "T/C x 100", "setting": "[4]", "value": 145},
      {"measurement": "number of mice cured after 30 days of the administration of the cells of Leukemia L-1210", "setting": "[5]", "value": 1},
      {"measurement": "T/C x 100", "setting": "[6]", "value": 198},
      {"measurement": "number of mice cured after 30 days of the administration of the cells of Leukemia L-1210", "setting": "[8]", "value": 2},
      {"measurement": "T/C x 100", "setting": "[7]", "value": 277}
    ]},
    {"substance": "Pt(NO3)(tetra-O-acetyl-β-D-glucuronato)(cis-dl-AMCHA)·3/2H2O [Compound No. 10]", "values": [
      {"measurement": "number of mice cured after 30 days of the administration of the cells of Leukemia L-1210", "setting": "[3]", "value": 1},
      {"measurement": "T/C x 100", "setting": "[4]", "value": 204},
      {"measurement": "T/C x 100", "setting": "[6]", "value": 242},
      {"measurement": "T/C x 100", "setting": "[7]", "value": 157},
      {"measurement": "rate of life prolongation (T/C x 100)", "setting": "Table 2, dose not stated", "value": 400, "unit": "%"}
    ]}
  ]
}
